These results are taken from patent US20230150970A1, “AMINOPYRIMIDINE DERIVATIVES AND THEIR USE AS ARYL HYDROCARBON RECEPTOR MODULATORS” (DONG-A ST CO., LTD., priority 2020, published 2023).

This experiment addresses T1, AhR (Homo sapiens, UniProt P35869).
T1 sequence (P35869 11-848): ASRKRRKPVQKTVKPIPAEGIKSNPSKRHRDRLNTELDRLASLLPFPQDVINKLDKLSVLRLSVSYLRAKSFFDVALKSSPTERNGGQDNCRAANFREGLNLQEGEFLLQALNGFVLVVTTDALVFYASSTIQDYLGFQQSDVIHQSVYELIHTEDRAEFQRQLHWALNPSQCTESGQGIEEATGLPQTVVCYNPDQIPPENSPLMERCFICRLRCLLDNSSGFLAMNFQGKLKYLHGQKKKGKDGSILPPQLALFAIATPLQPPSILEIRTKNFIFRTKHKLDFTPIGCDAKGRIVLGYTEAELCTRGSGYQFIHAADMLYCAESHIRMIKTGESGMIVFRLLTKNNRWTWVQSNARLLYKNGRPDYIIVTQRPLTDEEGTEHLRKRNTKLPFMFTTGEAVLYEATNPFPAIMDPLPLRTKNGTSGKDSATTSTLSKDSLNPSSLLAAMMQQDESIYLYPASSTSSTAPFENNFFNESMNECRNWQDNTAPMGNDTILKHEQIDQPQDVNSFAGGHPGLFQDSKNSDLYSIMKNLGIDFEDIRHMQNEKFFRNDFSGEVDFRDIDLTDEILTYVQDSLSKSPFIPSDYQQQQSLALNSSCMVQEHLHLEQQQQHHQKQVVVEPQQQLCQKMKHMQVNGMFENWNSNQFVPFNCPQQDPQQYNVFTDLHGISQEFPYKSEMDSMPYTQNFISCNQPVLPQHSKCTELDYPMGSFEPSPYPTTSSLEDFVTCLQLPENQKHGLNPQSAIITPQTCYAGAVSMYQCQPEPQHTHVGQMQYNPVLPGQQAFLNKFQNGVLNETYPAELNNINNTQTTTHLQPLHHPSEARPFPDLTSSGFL
Put plainly: In Vitro Assay 1: XRE-luciferase reporter assay, antagonism in human cell line (HepG2). The following applies: Assay 1: AhR-Luc Human Antagonism (IC50, nM), unmarked values: kynurenine 200 μM, 6 hours.
From the text: In Vitro XRE-Luciferase Reporter Assay (In Vitro Assay 1, 2, 3) AhR activation leads the induction of target gene expression such as CYP1A1 and CYPIB1 by AhR binding to AhR-responsive DNA elements also known as xenobiotics responsive elements (XREs). The assay for measuring AhR activity herein is the luciferase assay using cell lines transfected with luciferase reporter plasmid containing XREs at the upstream of the reporter gene. Cells transfected with XRE-luciferase reporter (XRE-Luc), plasmid drive luciferase activity reflecting activation and inhibition of AhR in the cells. […] Kynurenine (an endogenous AhR agonist), was used to stimulate cells to test antagonistic properties of the compounds. The half-maximal inhibitory concentration (IC50), or half-maximal effective concentration (EC50), value was calculated using nonlinear regression (four parameters), with Prism8.0 software (GraphPad).
In Vitro Assay 1: Antagonism in Human Cell Line
HepG2 (human hepatoma cell line) cell line with a XRE-luciferase reporter either transiently or stably (Invivogen) were plated in complete medium and incubated at 37° C. in a CO2 incubator. After 24 hours, cells were treated with kynurenine (50* or 200 μM) alone (negative control) or with test compounds for 6 hours. Luciferase activity was measured with a commercial kit such as the Promega Luciferase kit or Invivogen Luciferase kit. Relative luciferase activity (Firefly/Nano-Luc) was used to calculate IC50 values. […] (IC50 values are grouped as A, B, C and D, whereby A: IC50<0.01 μM; B: 0.01<IC50<0.1 μM; C: 0.1<IC50<1.0 μM; D: IC50>1.0 μM)
In general, IC50 refers to the concentration at which inhibition is half-maximal. Read a low IC50 as greater potency in that assay. `O=C(CO)NC1CCN(c2cc(-c3ccc(Cl)cc3)nc(-c3cccnc3)n2)CC1` [Example 238, N-(1-(6-(4-chlorophenyl)-2-(pyridin-3-yl)pyrimidin-4-yl)piperidin-4-yl)-2-hydroxyacetamide] displayed a concentration for half-maximal inhibition (IC50) of 10 to 100 nM.
The molecule `OC[C@H]1CCN(c2cc(-c3ccc(Cl)cc3)nc(-c3cccnc3)n2)C1` [Example 240, (S)-(1-(6-(4-chlorophenyl)-2-(pyridin-3-yl)pyrimidin-4-yl)pyrrolidin-3-yl)methanol] returned a half-maximal inhibitory concentration (IC50) of less than 10 nM.
On to `CC(=O)N[C@@H]1CN(c2cc(-c3ccc(Cl)cc3)nc(-c3cccnc3)n2)C[C@H]1O` [Example 241, N-((3R,4R)-1-(6-(4-chlorophenyl)-2-(pyridin-3-yl)pyrimidin-4-yl)-4-hydroxypyrrolidin-3-yl)acetamide], for which the IC50 lay within 10 to 100 nM.
For the molecule `CC(=O)N[C@@H]1CN(c2cc(-c3ccc(Cl)cc3)nc(-c3cccnc3)n2)C[C@H]1OC(C)=O` [Example 242, (3R,4R)-4-acetamido-1-(6-(4-chlorophenyl)-2-(pyridin-3-yl)pyrimidin-4-yl)pyrrolidin-3-yl acetate], the IC50 lay within 10 to 100 nM.
`CC(=O)N[C@H]1CN(c2cc(-c3ccc(Cl)cc3)nc(-c3cccnc3)n2)C[C@H]1O` [Example 244, N-((3S,4R)-1-(6-(4-chlorophenyl)-2-(pyridin-3-yl)pyrimidin-4-yl)-4-hydroxypyrrolidin-3-yl)acetamide]: the 50% inhibitory concentration (IC50) was more than 1000 nM.
For `CC(=O)N[C@H]1CN(c2cc(-c3ccc(Cl)cc3)nc(-c3cccnc3)n2)C[C@@H]1O` [Example 245, N-((3S,4S)-1-(6-(4-chlorophenyl)-2-(pyridin-3-yl)pyrimidin-4-yl)-4-hydroxypyrrolidin-3-yl)acetamide], the IC50 was 10 to 100 nM.
For `OC[C@H]1CCN(c2cc(-c3ccc(Cl)cc3)nc(-c3cccnc3)n2)C[C@H]1O` [Example 247, (3S,4R)-1-(6-(4-chlorophenyl)-2-(pyridin-3-yl)pyrimidin-4-yl)-4-(hydroxymethyl)piperidin-3-ol], the IC50 fell in the range of 10 to 100 nM.
Molecule `OC[C@H]1CCN(c2cc(-c3ccc(C(F)(F)F)cc3)nc(-c3cccnc3)n2)C[C@H]1O` [Example 248, (3S,4R)-4-(hydroxymethyl)-1-(2-(pyridin-3-yl)-6-(4-(trifluoromethyl)phenyl)pyrimidin-4-yl)piperidin-3-ol] registered an IC50 of 10 to 100 nM.
`OC[C@H]1CCN(c2cc(-c3ccc(Cl)cc3)nc(-c3cccnc3)n2)C[C@H]1F` [Example 249, ((3S,4R)-1-(6-(4-chlorophenyl)-2-(pyridin-3-yl)pyrimidin-4-yl)-3-fluoropiperidin-4-yl)methanol] yielded an IC50 of 10 to 100 nM.
For the molecule `OC[C@H]1CCN(c2cc(-c3ccc(C(F)(F)F)cc3)nc(-c3cccnc3)n2)C[C@H]1F` [Example 250, ((3S,4R)-3-fluoro-1-(2-(pyridin-3-yl)-6-(4-(trifluoromethyl)phenyl)pyrimidin-4-yl)piperidin-4-yl)methanol], the concentration for half-maximal inhibition (IC50) was less than 10 nM.
The result for `OC[C@@H]1CCN(c2cc(-c3ccc(Cl)cc3)nc(-c3cccnc3)n2)C[C@@H]1F` [Example 251, ((3R,4S)-1-(6-(4-chlorophenyl)-2-(pyridin-3-yl)pyrimidin-4-yl)-3-fluoropiperidin-4-yl)methanol] reads less than 10 nM; that for `OC[C@@H]1CCN(c2cc(-c3ccc(C(F)(F)F)cc3)nc(-c3cccnc3)n2)C[C@@H]1F` [Example 252, ((3R,4S)-3-fluoro-1-(2-(pyridin-3-yl)-6-(4-(trifluoromethyl)phenyl)pyrimidin-4-yl)piperidin-4-yl)methanol], less than 10 nM; that for `OC[C@H]1CCN(c2cc(-c3ccc(Cl)cc3)nc(-c3cccnc3)n2)C[C@@H]1F` [Example 253, ((3R,4R)-1-(6-(4-chlorophenyl)-2-(pyridin-3-yl)pyrimidin-4-yl)-3-fluoropiperidin-4-yl)methanol], less than 10 nM.
Molecule `OC[C@H]1CCN(c2cc(-c3ccc(C(F)(F)F)cc3)nc(-c3cccnc3)n2)C[C@@H]1F` [Example 254, ((3R,4R)-3-fluoro-1-(2-(pyridin-3-yl)-6-(4-(trifluoromethyl)phenyl)pyrimidin-4-yl)piperidin-4-yl)methanol] showed a concentration for half-maximal inhibition (IC50) of less than 10 nM.
In the case of `OC[C@H]1CN(c2cc(-c3ccc(Cl)cc3)nc(-c3cccnc3)n2)C[C@H]1O` [Example 255, (3S,4R)-1-(6-(4-chlorophenyl)-2-(pyridin-3-yl)pyrimidin-4-yl)-4-(hydroxymethyl)pyrrolidin-3-ol] it was 10 to 100 nM; in that of `OC[C@H]1CN(c2cc(-c3ccc(C(F)(F)F)cc3)nc(-c3cccnc3)n2)C[C@H]1O` [Example 256, (3S,4R)-4-(hydroxymethyl)-1-(2-(pyridin-3-yl)-6-(4-(trifluoromethyl)phenyl)pyrimidin-4-yl)pyrrolidin-3-ol], less than 10 nM; in that of `OC[C@H]1CN(c2cc(-c3ccc(Cl)cc3)nc(-c3cccnc3)n2)C[C@@H]1O` [Example 257, (3R,4R)-1-(6-(4-chlorophenyl)-2-(pyridin-3-yl)pyrimidin-4-yl)-4-(hydroxymethyl)pyrrolidin-3-ol], less than 10 nM.
`OC[C@H]1CCN(c2cc(-c3ccc(Cl)cc3)nc(-c3cccnc3)n2)C[C@@H]1O` [Example 259, (3R,4R)-1-(6-(4-chlorophenyl)-2-(pyridin-3-yl)pyrimidin-4-yl)-4-(hydroxymethyl)piperidin-3-ol] showed a 50% inhibitory concentration (IC50) of less than 10 nM.
Molecule `OC[C@@H]1CCN(c2cc(-c3ccc(Cl)cc3)nc(-c3cccnc3)n2)C[C@H]1O` [Example 261, (3S,4S)-1-(6-(4-chlorophenyl)-2-(pyridin-3-yl)pyrimidin-4-yl)-4-(hydroxymethyl)piperidin-3-ol] registered an IC50 of less than 10 nM.
Molecule `Cc1ccncc1-c1nc(-c2ccc(C(F)(F)F)cc2)cc(N2CC[C@H](O)C2)n1` [Example 263, (S)-1-(2-(4-methylpyridin-3-yl)-6-(4-(trifluoromethyl)phenyl)pyrimidin-4-yl)pyrrolidin-3-ol] registered an IC50 of less than 10 nM.
The result for `OC[C@@H]1CCN(c2cc(-c3ccc(Cl)cc3)nc(-c3cccnc3)n2)C[C@@H]1O` [Example 264, (3R,4S)-1-(6-(4-chlorophenyl)-2-(pyridin-3-yl)pyrimidin-4-yl)-4-(hydroxymethyl)piperidin-3-ol] reads 10 to 100 nM; that for `OC[C@@H]1CCN(c2cc(-c3ccc(C(F)(F)F)cc3)nc(-c3cccnc3)n2)C[C@@H]1O` [Example 265, (3R,4S)-4-(hydroxymethyl)-1-(2-(pyridin-3-yl)-6-(4-(trifluoromethyl)phenyl)pyrimidin-4-yl)piperidin-3-ol], less than 10 nM; that for `OC[C@@H]1CN(c2cc(-c3ccc(Cl)cc3)nc(-c3cccnc3)n2)C[C@H]1O` [Example 266, (3S,4S)-1-(6-(4-chlorophenyl)-2-(pyridin-3-yl)pyrimidin-4-yl)-4-(hydroxymethyl)pyrrolidin-3-ol], less than 10 nM.
Take `OC[C@@H]1CN(c2cc(-c3ccc(C(F)(F)F)cc3)nc(-c3cccnc3)n2)C[C@H]1O` [Example 267, (3S,4S)-4-(hydroxymethyl)-1-(2-(pyridin-3-yl)-6-(4-(trifluoromethyl)phenyl)pyrimidin-4-yl)pyrrolidin-3-ol]: the IC50 is less than 10 nM.
The molecule `Cc1ncccc1-c1nc(-c2ccc(C(F)(F)F)cc2)cc(N2CC[C@H](O)C2)n1` [Example 269, (S)-1-(2-(2-methylpyridin-3-yl)-6-(4-(trifluoromethyl)phenyl)pyrimidin-4-yl)pyrrolidin-3-ol] registered an IC50 of less than 10 nM.
`Oc1ncccc1-c1nc(-c2ccc(C(F)(F)F)cc2)cc(N2CC[C@H](O)C2)n1` [Example 270, (S)-3-(4-(3-hydroxypyrrolidin-1-yl)-6-(4-(trifluoromethyl)phenyl)pyrimidin-2-yl)pyridin-2-ol] returned an IC50 of less than 10 nM.
`OCC1CCN(c2cc(-c3ccc(Cl)cc3O)nc(-c3cccnc3)n2)CC1` [Example 271, 5-chloro-2-(6-(4-(hydroxymethyl)piperidin-1-yl)-2-(pyridin-3-yl)pyrimidin-4-yl)phenol] showed an IC50 of less than 10 nM.
In the case of `CC(C)(C)OC(=O)N1CCN(c2cc(-c3ccc(Cl)cc3)nc(-c3cccnc3)n2)C[C@H]1CO` [Example 272, tert-butyl (S)-4-(6-(4-chlorophenyl)-2-(pyridin-3-yl)pyrimidin-4-yl)-2-(hydroxymethyl)piperazine-1-carboxylate], the IC50 lay in the range of 10 to 100 nM.
Consider `CS(=O)(=O)Nc1ccc(-c2cc(N3CCC(CO)CC3)nc(-c3cccnc3)n2)cc1` [Example 274, N-(4-(6-(4-(hydroxymethyl)piperidin-1-yl)-2-(pyridin-3-yl)pyrimidin-4-yl)phenyl)methanesulfonamide], for which the half-inhibitory concentration (IC50) is more than 1000 nM.
Molecule `CN1CCN(c2ccc(-c3cc(N4CCC(CO)CC4)nc(-c4cccnc4)n3)cc2)CC1` [Example 275, (1-(6-(4-(4-methylpiperazin-1-yl)phenyl)-2-(pyridin-3-yl)pyrimidin-4-yl)piperidin-4-yl)methanol] returned an IC50 of 10 to 100 nM.
